# From ChEMBL document CHEMBL3576802 (J Med Chem, 2015)
# Where a SMILES comes first, the peptide text is derived from it. Bridges are numbered along the chain shown (N, C = ends). [ ]: non-standard residue; d: D form. Bip = N[C@@H](Cc1ccc(-c2ccccc2)cc1)C(=O)O; 1Nal = N[C@@H](Cc1cccc2ccccc12)C(=O)O
# Legend:
# Format in all cases: cell-based
# Melanocortin receptor 4 = Melanocortin receptor 4 (Mus musculus, UniProt P56450); assay: Displacement of MTII from mouse MC4R expressed in HEK293 cells; settings: for Kb: read-out: pA2 (converted)
# [1] = target: Melanocyte-stimulating hormone receptor (Mus musculus, UniProt Q01727); assay: Agonist activity at mouse MC1R expressed in HEK293 cells by cAMP functional bioassay
# Melanocortin receptor 3 = Melanocortin receptor 3 (Mus musculus, UniProt P33033); assay: Displacement of MTII from mouse MC3R expressed in HEK293 cells; settings: for Kb: read-out: pA2 (converted)
# [2] = target: Melanocyte-stimulating hormone receptor (Mus musculus) (UniProt Q01727); assay: Agonist activity at mouse MC1R expressed in HEK293 cells at 100 uM by cAMP functional bioassay
# Chain of Melanocyte-stimulating hormone receptor (Mus musculus) (Q01727 whole entry, looked up): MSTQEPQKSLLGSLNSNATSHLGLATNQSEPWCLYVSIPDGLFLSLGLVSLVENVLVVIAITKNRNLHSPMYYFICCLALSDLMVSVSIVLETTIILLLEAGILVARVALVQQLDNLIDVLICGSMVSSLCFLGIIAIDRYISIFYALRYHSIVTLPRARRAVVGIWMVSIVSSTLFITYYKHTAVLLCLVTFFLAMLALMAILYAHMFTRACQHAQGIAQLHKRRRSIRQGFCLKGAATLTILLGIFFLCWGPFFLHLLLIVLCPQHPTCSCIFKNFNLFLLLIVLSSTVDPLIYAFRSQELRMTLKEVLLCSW
# Chain of Melanocortin receptor 3 (P33033 whole entry): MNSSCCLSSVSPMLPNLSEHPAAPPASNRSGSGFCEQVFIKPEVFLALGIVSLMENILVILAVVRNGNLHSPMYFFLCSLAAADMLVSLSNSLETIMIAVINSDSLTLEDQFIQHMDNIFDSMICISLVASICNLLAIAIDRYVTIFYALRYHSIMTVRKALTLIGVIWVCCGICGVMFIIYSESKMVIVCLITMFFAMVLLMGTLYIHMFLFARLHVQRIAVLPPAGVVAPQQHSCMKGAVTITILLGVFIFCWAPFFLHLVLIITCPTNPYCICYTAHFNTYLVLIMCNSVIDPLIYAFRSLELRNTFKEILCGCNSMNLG
# Chain of Melanocortin receptor 4 (P56450 whole entry): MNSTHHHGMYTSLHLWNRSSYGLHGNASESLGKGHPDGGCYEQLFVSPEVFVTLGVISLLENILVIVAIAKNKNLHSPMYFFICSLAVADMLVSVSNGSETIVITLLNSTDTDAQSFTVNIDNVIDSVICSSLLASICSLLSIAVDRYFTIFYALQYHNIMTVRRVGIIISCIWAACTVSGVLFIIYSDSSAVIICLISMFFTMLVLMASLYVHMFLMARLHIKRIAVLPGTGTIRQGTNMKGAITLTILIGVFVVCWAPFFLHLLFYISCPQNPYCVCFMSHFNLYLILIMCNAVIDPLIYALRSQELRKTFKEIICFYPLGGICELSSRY
# Chain of Melanocyte-stimulating hormone receptor (Q01727 whole entry): as the sequence (Q01727 whole entry, looked up) above
structure (smiles),measurement,setting,value
C[C@@H]1NC(=O)[C@H](CC(N)=O)NC(=O)[C@H](Cc2ccccc2)NC(=O)[C@H](Cc2ccccc2)NC(=O)[C@H](CCCNC(=N)N)NC(=O)[C@H]([C@@H](C)O)NC(=O)[C@H](Cc2ccc(O)cc2)NC(=O)[C@@H]2CCCN2C(=O)[C@H]2CCCN2C(=O)[C@H](Cc2ccc(O)cc2)NC(=O)[C@H]([C@@H](C)O)NC(=O)[C@H](Cc2ccccc2)NC1=O (cyclo(YTRFFNAFTY[dP]P)),Kb,Melanocortin receptor 4,158 nM
same,EC50,[1],11600 nM
same,Kb,Melanocortin receptor 3,1260 nM
CC(=O)N[C@H]1CSSC[C@@H](C(N)=O)NC(=O)[C@H](Cc2ccccc2)NC(=O)[C@H](C)NC(=O)[C@H](CC(N)=O)NC(=O)[C@H](Cc2ccccc2)NC(=O)[C@H](Cc2ccccc2)NC(=O)[C@H](CCCNC(=N)N)NC1=O,IC50,Melanocortin receptor 4; hek293,Not Active
C[C@@H]1NC(=O)[C@H](CC(N)=O)NC(=O)[C@H](Cc2ccccc2)NC(=O)[C@H](Cc2cccc3ccccc23)NC(=O)[C@H](CCCNC(=N)N)NC(=O)[C@@H]2CCCN2C(=O)[C@H]2CCCN2C(=O)[C@H](Cc2ccccc2)NC1=O (cyclo(R[1Nal]FNAF[dP]P)),Ki,Melanocortin receptor 4; hek293,16 nM
same,pA2,Melanocortin receptor 4; hek293,7.8
same,EC50,[1]; hek293,2500 nM
CC(=O)N[C@H](C(=O)N[C@H]1CSSC[C@@H](C(=O)N[C@@H](CCCNC(=N)N)C(N)=O)NC(=O)[C@H](Cc2ccc(O)cc2)NC(=O)[C@H]2CSSC[C@H](NC(=O)[C@H](Cc3ccc(O)cc3)NC1=O)C(=O)N[C@@H](CCCNC(=N)N)C(=O)N[C@@H](Cc1ccccc1)C(=O)N[C@@H](Cc1ccccc1)C(=O)N[C@@H](CC(N)=O)C(=O)N[C@@H](C)C(=O)N[C@@H](Cc1ccccc1)C(=O)N2)[C@@H](C)O,Kb,Melanocortin receptor 3,631 nM
C[C@@H]1NC(=O)[C@H](CC(N)=O)NC(=O)[C@H](CCc2ccccc2)NC(=O)[C@H](Cc2ccccc2)NC(=O)[C@H](CCCNC(=N)N)NC(=O)[C@@H]2CCCN2C(=O)[C@H]2CCCN2C(=O)[C@H](Cc2ccccc2)NC1=O,EC50,[1]; hek293,20300 nM
C[C@@H]1NC(=O)[C@H](CC(N)=O)NC(=O)[C@@H]2Cc3ccccc3CN2C(=O)[C@H](Cc2ccccc2)NC(=O)[C@H](CCCNC(=N)N)NC(=O)[C@@H]2CCCN2C(=O)[C@H]2CCCN2C(=O)[C@H](Cc2ccccc2)NC1=O,EC50,[1]; hek293,3900 nM
C[C@@H]1NC(=O)C(CCCN)NC(=O)[C@H](Cc2ccccc2)NC(=O)[C@H](Cc2ccccc2)NC(=O)[C@H](CCCNC(=N)N)NC(=O)[C@@H]2CCCN2C(=O)[C@H]2CCCN2C(=O)[C@H](Cc2ccccc2)NC1=O (stereo not given in full),Ki,Melanocortin receptor 3,160 nM
same,Kb,Melanocortin receptor 3,158 nM
same,Activity,[2],30%
C[C@@H]1NC(=O)[C@H](CC(N)=O)NC(=O)[C@H](Cc2ccccc2)NC(=O)[C@H](Cc2ccc3ccccc3c2)NC(=O)[C@H](CCCNC(=N)N)NC(=O)[C@@H]2CCCN2C(=O)[C@H]2CCCN2C(=O)[C@H](Cc2ccccc2)NC1=O,Ki,Melanocortin receptor 4; hek293,100 nM
same,pA2,Melanocortin receptor 4; hek293,7
same,EC50,[1]; hek293,8800 nM
C[C@@H]1NC(=O)[C@H](CC(N)=O)NC(=O)[C@H](Cc2ccccc2)NC(=O)[C@H](c2ccccc2)NC(=O)[C@H](CCCNC(=N)N)NC(=O)[C@@H]2CCCN2C(=O)[C@H]2CCCN2C(=O)[C@H](Cc2ccccc2)NC1=O,EC50,[1]; hek293,13600 nM
C[C@H](NC(=O)[C@H](Cc1ccc(O)cc1)NC(=O)[C@@H]1CSSC[C@H](NC(=O)[C@H](Cc2ccc(O)cc2)NC(=O)[C@H](C)NC(=O)[C@@H](N)[C@@H](C)O)C(=O)N[C@@H](CCCNC(=N)N)C(=O)N[C@@H](Cc2ccccc2)C(=O)N[C@@H](Cc2ccccc2)C(=O)N[C@@H](CC(N)=O)C(=O)N[C@@H](C)C(=O)N[C@@H](Cc2ccccc2)C(=O)N1)C(=O)N[C@@H](CCCNC(=N)N)C(N)=O (H-TAYCRFFNAFCYAR-NH2; disulfide 4-11),Kb,Melanocortin receptor 3,794 nM
C[C@@H]1NC(=O)[C@H](CC(N)=O)NC(=O)[C@H](Cc2cccc3ccccc23)NC(=O)[C@H](Cc2ccccc2)NC(=O)[C@H](CCCNC(=N)N)NC(=O)[C@@H]2CCCN2C(=O)[C@H]2CCCN2C(=O)[C@H](Cc2ccccc2)NC1=O,Ki,Melanocortin receptor 4; hek293,16 nM
same,pA2,Melanocortin receptor 4; hek293,7.8
same,EC50,[1]; hek293,12700 nM
CC(=O)N[C@H](C(=O)N[C@H]1CSSC[C@@H](C(=O)N[C@@H](CCCNC(=N)N)C(N)=O)NC(=O)[C@H](Cc2ccc(O)cc2)NC(=O)[C@@H]2CSSC[C@H](NC(=O)[C@H](Cc3ccc(O)cc3)NC1=O)C(=O)N[C@@H](CCCNC(=N)N)C(=O)N[C@@H](Cc1ccccc1)C(=O)N[C@@H](Cc1ccccc1)C(=O)N[C@@H](CC(N)=O)C(=O)N[C@@H](C)C(=O)N[C@@H](Cc1ccccc1)C(=O)N2)[C@@H](C)O,Kb,Melanocortin receptor 4,63.1 nM
C[C@@H]1NC(=O)[C@H](CCCCN)NC(=O)[C@H](Cc2ccccc2)NC(=O)[C@H](Cc2ccccc2)NC(=O)[C@H](CCCNC(=N)N)NC(=O)[C@@H]2CCCN2C(=O)[C@H]2CCCN2C(=O)[C@H](Cc2ccccc2)NC1=O,Ki,Melanocortin receptor 4,5 nM
same,Kb,Melanocortin receptor 4,5.01 nM
same,Ki,Melanocortin receptor 3,100 nM
same,Kb,Melanocortin receptor 3,100 nM
C[C@@H]1NC(=O)C(CN)NC(=O)[C@H](Cc2ccccc2)NC(=O)[C@H](Cc2ccccc2)NC(=O)[C@H](CCCNC(=N)N)NC(=O)[C@@H]2CCCN2C(=O)[C@H]2CCCN2C(=O)[C@H](Cc2ccccc2)NC1=O (stereo not given in full),Ki,Melanocortin receptor 3,130 nM
same,Kb,Melanocortin receptor 3,126 nM
same,Activity,[2],75%
C[C@@H]1NC(=O)C(CCN)NC(=O)[C@H](Cc2ccccc2)NC(=O)[C@H](Cc2ccccc2)NC(=O)[C@H](CCCNC(=N)N)NC(=O)[C@@H]2CCCN2C(=O)[C@H]2CCCN2C(=O)[C@H](Cc2ccccc2)NC1=O (stereo not given in full),Ki,Melanocortin receptor 3,100 nM
same,Kb,Melanocortin receptor 3,100 nM
same,Activity,[2],50%
C[C@@H]1NC(=O)[C@H](CC(N)=O)NC(=O)[C@H](Cc2ccc(-c3ccccc3)cc2)NC(=O)[C@H](Cc2ccccc2)NC(=O)[C@H](CCCNC(=N)N)NC(=O)[C@@H]2CCCN2C(=O)[C@H]2CCCN2C(=O)[C@H](Cc2ccccc2)NC1=O,Ki,Melanocortin receptor 4,160 nM
same,Kb,Melanocortin receptor 4,158 nM
same,EC50,[1],500 nM
C[C@@H]1NC(=O)[C@H](CC(N)=O)NC(=O)[C@H](c2ccccc2)NC(=O)[C@H](Cc2ccccc2)NC(=O)[C@H](CCCNC(=N)N)NC(=O)[C@@H]2CCCN2C(=O)[C@H]2CCCN2C(=O)[C@H](Cc2ccccc2)NC1=O,Ki,Melanocortin receptor 4; hek293,1300 nM
same,pA2,Melanocortin receptor 4; hek293,5.9
same,EC50,[1]; hek293,21000 nM
C[C@@H]1NC(=O)[C@H](CC(N)=O)NC(=O)[C@H](Cc2ccccc2)NC(=O)[C@H](Cc2ccc(-c3ccccc3)cc2)NC(=O)[C@H](CCCNC(=N)N)NC(=O)[C@@H]2CCCN2C(=O)[C@H]2CCCN2C(=O)[C@H](Cc2ccccc2)NC1=O (cyclo(R[Bip]FNAF[dP]P)),Ki,Melanocortin receptor 4,160 nM
same,Kb,Melanocortin receptor 4,158 nM
same,EC50,[1],800 nM
same,Ki,Melanocortin receptor 3,630 nM
same,Kb,Melanocortin receptor 3,631 nM
C[C@@H]1NC(=O)[C@H](CC(N)=O)NC(=O)[C@H](Cc2ccccc2)NC(=O)[C@H](CCc2ccccc2)NC(=O)[C@H](CCCNC(=N)N)NC(=O)[C@@H]2CCCN2C(=O)[C@H]2CCCN2C(=O)[C@H](Cc2ccccc2)NC1=O,Ki,Melanocortin receptor 4; hek293,100 nM
same,pA2,Melanocortin receptor 4; hek293,7
same,EC50,[1]; hek293,1500 nM
C[C@@H]1NC(=O)[C@H](CC(N)=O)NC(=O)[C@H](Cc2ccccc2)NC(=O)C(Cc2ccc3ccccc3c2)NC(=O)[C@H](CCCNC(=N)N)NC(=O)[C@@H]2CCCN2C(=O)[C@H]2CCCN2C(=O)[C@H](Cc2ccccc2)NC1=O (stereo not given in full),Ki,Melanocortin receptor 3,1000 nM
same,Kb,Melanocortin receptor 3,1000 nM
C[C@@H]1NC(=O)[C@H](CC(N)=O)NC(=O)[C@H](Cc2ccc3ccccc3c2)NC(=O)[C@H](Cc2ccccc2)NC(=O)[C@H](CCCNC(=N)N)NC(=O)[C@@H]2CCCN2C(=O)[C@H]2CCCN2C(=O)[C@H](Cc2ccccc2)NC1=O,Ki,Melanocortin receptor 4; hek293,63 nM
same,pA2,Melanocortin receptor 4; hek293,7.2
same,EC50,[1]; hek293,19600 nM
C[C@@H]1NC(=O)[C@H](CC(N)=O)NC(=O)[C@H](Cc2ccccc2)NC(=O)[C@H](Cc2ccccc2)NC(=O)[C@H](CCCNC(=N)N)NC(=O)[C@@H]2CCCN2C(=O)[C@H]2CCCN2C(=O)[C@H](Cc2ccccc2)NC1=O,EC50,[1],4500 nM
C[C@@H]1NC(=O)[C@H](Cc2ccccc2)NC(=O)[C@H](C)NC(=O)[C@H](CC(N)=O)NC(=O)[C@H](Cc2ccccc2)NC(=O)[C@H](Cc2ccccc2)NC(=O)[C@H](CCCNC(=N)N)NC(=O)[C@H](C)NC(=O)[C@H](Cc2ccc(O)cc2)NC(=O)[C@@H]2CCCN2C(=O)[C@H]2CCCN2C(=O)[C@H](Cc2ccc(O)cc2)NC1=O,EC50,[1],17600 nM
C[C@@H]1NC(=O)[C@H](CC(N)=O)NC(=O)C(Cc2cccc3ccccc23)NC(=O)[C@H](Cc2ccccc2)NC(=O)[C@H](CCCNC(=N)N)NC(=O)[C@@H]2CCCN2C(=O)[C@H]2CCCN2C(=O)[C@H](Cc2ccccc2)NC1=O (stereo not given in full),Ki,Melanocortin receptor 3,2500 nM
same,Kb,Melanocortin receptor 3,2510 nM
C[C@@H]1NC(=O)CNC(=O)[C@H](Cc2ccccc2)NC(=O)[C@H](Cc2ccccc2)NC(=O)[C@H](CCCNC(=N)N)NC(=O)[C@@H]2CCCN2C(=O)[C@H]2CCCN2C(=O)[C@H](Cc2ccccc2)NC1=O,Ki,Melanocortin receptor 4,4 nM
same,Kb,Melanocortin receptor 4,3.98 nM
same,Ki,Melanocortin receptor 3,25 nM
same,Kb,Melanocortin receptor 3,25.1 nM
same,Activity,[2],50%
